Data: the NIST ThermoML archive (doi:10.1007/s10765-007-0223-x)
Numbers after ± are expanded uncertainties.

Assay: xn = mol fraction of the nth substance listed
Conditions: 101 kPa, Liquid; for speed of sound: Single path-length method

CCc1ccccc1 [ethylbenzene] + COC(C)(C)C
Conditions | mass density, 305.65 K [kg/m3] | mass density, 308.15 K [kg/m3] | mass density, 310.65 K [kg/m3] | mass density, 313.15 K [kg/m3] | speed of sound, 308.15 K [m/s] | speed of sound, 310.65 K [m/s] | speed of sound, 313.15 K [m/s] | speed of sound, 315.65 K [m/s]
x2 = 0 | 855.837 ± 0.39 | 853.622 ± 0.39 | 851.407 ± 0.39 | 849.186 ± 0.4 | 1276.8 ± 2.1 | 1266.5 ± 2.1 | 1256.3 ± 2.1 | 1246.1 ± 2.1
x2 = 0.046 | 850.573 ± 0.41 | 848.347 ± 0.41 | 846.119 ± 0.42 | 843.886 ± 0.42 | 1264.9 ± 2.1 | 1254.8 ± 2.1 | 1244.6 ± 2.1 | 1234.5 ± 2.1
x2 = 0.106 | 843.52 ± 0.42 | 841.274 ± 0.43 | 839.024 ± 0.43 | 836.773 ± 0.43 | 1249.5 ± 2.1 | 1239.2 ± 2.1 | 1229 ± 2.1 | 1218.7 ± 2.1
x2 = 0.212 | 831.061 ± 0.44 | 828.779 ± 0.44 | 826.493 ± 0.45 | 824.202 ± 0.45 | 1221.9 ± 2.1 | 1211.5 ± 2.1 | 1201 ± 2.1 | 1190.8 ± 2.1
x2 = 0.299 | 820.447 ± 0.46 | 818.132 ± 0.46 | 815.815 ± 0.46 | 813.486 ± 0.47 | 1198.5 ± 2.1 | 1188.1 ± 2.1 | 1177.5 ± 2.1 | 1166.9 ± 2.1
x2 = 0.402 | 807.578 ± 0.47 | 805.218 ± 0.48 | 802.853 ± 0.48 | 800.48 ± 0.48 | 1169.2 ± 2.1 | 1158.6 ± 2.1 | 1148 ± 2.1 | 1137.5 ± 2.1
x2 = 0.503 | 796.166 ± 0.49 | 793.77 ± 0.5 | 791.367 ± 0.5 | 788.959 ± 0.5 | 1144 ± 2.1 | 1133.2 ± 2.1 | 1122.5 ± 2.1 | –
x2 = 0.6 | 782.111 ± 0.52 | 779.66 ± 0.52 | 777.204 ± 0.52 | 774.736 ± 0.53 | 1112.2 ± 2.1 | 1101.4 ± 2.1 | 1090.5 ± 2.1 | –
x2 = 0.701 | 768.689 ± 0.53 | 766.192 ± 0.54 | 763.689 ± 0.54 | 761.174 ± 0.55 | 1082.7 ± 2.1 | 1071.8 ± 2.1 | 1060.8 ± 2.1 | –
x2 = 0.822 | 752.062 ± 0.56 | 749.497 ± 0.56 | 746.926 ± 0.57 | 744.341 ± 0.57 | 1045.6 ± 2.1 | 1034.6 ± 2.1 | 1023.4 ± 2.1 | –
x2 = 0.899 | 741.065 ± 0.58 | 738.451 ± 0.58 | 735.825 ± 0.58 | 733.188 ± 0.59 | 1021 ± 2.1 | 1009.8 ± 2.1 | 998.53 ± 2.1 | –
x2 = 0.948 | 733.91 ± 0.59 | 731.264 ± 0.59 | 728.607 ± 0.59 | 725.934 ± 0.6 | 1005.2 ± 2.1 | 993.9 ± 2.1 | 982.63 ± 2.1 | –
